We go through six compounds from patent publication US20020002171A1, “Materials and methods for killing nematodes and nematode eggs” (priority 2000, published 2002).

In the assay the test system is Caenorhabditis elegans. The experiment in a line: C. elegans L1 nematicidal dose response in 96-well plates, 5 day visual score (Example 2; same procedure for Example 7, Table 3). Details: key to 5 Day Visual Score V1 / 5 Day Visual Score V2 / 5 Day Visual Score V3 / 5 Day Visual Score V4 / 5 Day Visual Score V6 / 5 Day Visual Score V5 / Initial HTS Run Visual Score / Follow-up HTS Run Visual Score: Dead: only stiff L1s (no movement); Dead (L4): worms are dead, but at a later larval stage; majority of worms are L1 (based on size) worms move when plate is tapped; majority of worms are L2 (based on size); majority of worms are L3 (based on size); majority of worms are L4 (based on size); AD: majority of worms are adult; #AD: 5 adult worms or less; B!: sterile (0-25 progeny); B: low broodsize (25-100 progeny); ˜B: moderate broodsize (100-250 progeny); <: reduced broodsize (250-500 progeny); OK: no effect (˜1000+ progeny). The class given is in vivo. The essentials:
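L1 larvae, 20 per well in NGM with 1% E. coli HB101 and antibiotic/antimycotic, exposed to six 3-fold dilutions from 70 μM down to 0.3 μM (1.4% DMSO at top). Held at 20° C; viability scored visually under 100× dissecting microscope on day 5.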

Setting [1] is: dose response, dilution V1, day 5.
The mark [2] stands for this setting: dose response, dilution V2, day 5.
Setting [3] is: dose response, dilution V4, day 5.
Setting [4] is: dose response, dilution V5, day 5.
[5] abbreviates: dose response, dilution V6, day 5.
The mark [6] stands for this setting: dose response, dilution V1, 5 day.
Where [7] appears, read: dose response, dilution V3, 5 day.
The mark [8] stands for this setting: dose response, dilution V4, 5 day.
The mark [9] stands for this setting: dose response, dilution V5, 5 day.
Where [10] appears, read: dose response, dilution V6, 5 day.

Consider `CCN(c1nc(N2CCN(c3c(C)cccc3C)CC2)ns1)C1CCCCC1` [compound 228], for which the “Follow-up HTS Run % Run” value is 73%, the “Follow-up HTS Run Visual Score” value is “Dead/1L4/1AD”, the “Follow-up HTS Run mOD” value is reported as 118 mOD and the “Initial HTS Run % Run” value amounted to 107%. The “Initial HTS Run Visual Score” value was found to be 1AD/B! and the “Initial HTS Run mOD” value was 118 mOD. Besides, the “5 Day Visual Score V1” value under setting [1] is “Dead”. For the same compound, under setting [2], the “5 Day Visual Score V2” value is on record as “Dead”. The “5 Day Visual Score V3” value (dose response, dilution V3, day 5) is recorded as “OK (no effect (˜1000+ progeny))”. Besides, the “5 Day Visual Score V4” value under setting [3] is given as “OK (no effect (˜1000+ progeny))”. Also, the “5 Day Visual Score V5” value under setting [4] was “OK (no effect (˜1000+ progeny))”. Moreover, the “5 Day Visual Score V6” value under setting [5] is reported as “OK (no effect (˜1000+ progeny))”.
With `CN(CCc1ccccc1)c1nc(NCc2ccccc2C(F)(F)F)ns1` [compound 322], the “Follow-up HTS Run % Run” value was determined as 111%, the “Follow-up HTS Run Visual Score” value is listed as “B (low broodsize (25-100 progeny))”, the “Follow-up HTS Run mOD” value is reported as 178 mOD and the “Initial HTS Run % Run” value is 94%. The “Initial HTS Run Visual Score” value is listed as “B!-Clear-Few Eggs” and the “Initial HTS Run mOD” value is listed as 103 mOD. The “5 Day Visual Score V1” value under setting [6] is “B! (sterile (0-25 progeny))”. In addition, the “5 Day Visual Score V3” value under setting [7] is given as “OK (no effect (˜1000+ progeny))”. Further, the “5 Day Visual Score V4” value under setting [8] is reported as “OK (no effect (˜1000+ progeny))”. In addition, under setting [9], the “5 Day Visual Score V5” value was “OK (no effect (˜1000+ progeny))”. Under setting [10], the “5 Day Visual Score V6” value was “OK (no effect (˜1000+ progeny))”.
For the compound `COc1ccc(C2=NOC(c3ccc(-c4ccccc4)cc3)C2C(=O)NCCc2ccccc2F)cc1` (stereo not shown) [AKC 121], the “5 Day Visual Score V4” value (2.6 μM, C. elegans L1, scored day 5) was “#AD/˜B”. Also, the “5 Day Visual Score V2” value (23.3 μM, C. elegans L1, scored day 5) is “L1”. The “5 Day Visual Score V1” value (70 μM, C. elegans L1, scored day 5) is “L1”.
Regarding `CN(Cc1ccccc1)c1nc(NCc2ccccc2)ns1` [AKC 328], the “Follow-up HTS Run % Run” value is given as 101%, the “Follow-up HTS Run mOD” value is given as 163 mOD, the “Initial HTS Run % Run” value is 98% and the “Initial HTS Run mOD” value amounted to 108 mOD. The “5 Day Visual Score V1” value under setting [1] is “Dead”. In addition, the “5 Day Visual Score V2” value under setting [2] is recorded as “L1”. The “5 Day Visual Score V5” value under setting [4] was “˜B (moderate broodsize (100-250 progeny))”.
On to `COc1ccc(CCN(C)c2nc(NCc3ccc(C(F)(F)F)cc3)ns2)cc1OC` [compound 317], for which the “Follow-up HTS Run % Run” value worked out at 111%, the “Follow-up HTS Run Visual Score” value was “L2”, the “Follow-up HTS Run mOD” value was 179 mOD and the “Initial HTS Run % Run” value came to 108%. The “Initial HTS Run mOD” value is on record as 119 mOD. The “5 Day Visual Score V1” value under setting [6] is “Dead”. Under setting [7], the “5 Day Visual Score V3” value was “OK (no effect (˜1000+ progeny))”. In addition, under setting [8], the “5 Day Visual Score V4” value was “OK (no effect (˜1000+ progeny))”. For the same compound, the “5 Day Visual Score V5” value under setting [9] is listed as “OK (no effect (˜1000+ progeny))”. For the same compound, under setting [10], the “5 Day Visual Score V6” value was “OK (no effect (˜1000+ progeny))”.
As to `Cc1cccc(C)c1N1CCN(c2nc(NCCC(c3ccccc3)c3ccccc3)ns2)CC1` [compound 287], the “Follow-up HTS Run % Run” value is 88%, the “Follow-up HTS Run mOD” value was 142 mOD, the “Initial HTS Run % Run” value turned out to be 128% and the “Initial HTS Run mOD” value is reported as 141 mOD. Moreover, the “5 Day Visual Score V1” value under setting [1] is reported as “Dead”. Moreover, the “5 Day Visual Score V2” value under setting [2] is listed as “B (low broodsize (25-100 progeny))”. Under setting [3], the “5 Day Visual Score V4” value is given as “OK (no effect (˜1000+ progeny))”. In addition, under setting [4], the “5 Day Visual Score V5” value was “OK (no effect (˜1000+ progeny))”. Further, the “5 Day Visual Score V6” value under setting [5] is given as “OK (no effect (˜1000+ progeny))”.
